Measurements taken from US6914053B2, “Adenosine A3 receptor agonists” (CV Therapeutics, Inc., priority 2002, dated 2005).

What was measured:
A3 AdoRs = molecular target: T1, A3 AdoRs (Homo sapiens, UniProt P0DMS8); experiment: Radioligand binding competition with 125I-AB-MECA on membranes of transfected cells; details: competition with 0.2 nM 125I-AB-MECA, membranes of HEK-A3 or CHO-A3, TEM buffer, 90 minutes
T1 construct: expressed in transfected cells; host or cells: HEK-293 or CHO cells (HEK-A3 or CHO-A3), membranes
T1 sequence (P0DMS8 1-318): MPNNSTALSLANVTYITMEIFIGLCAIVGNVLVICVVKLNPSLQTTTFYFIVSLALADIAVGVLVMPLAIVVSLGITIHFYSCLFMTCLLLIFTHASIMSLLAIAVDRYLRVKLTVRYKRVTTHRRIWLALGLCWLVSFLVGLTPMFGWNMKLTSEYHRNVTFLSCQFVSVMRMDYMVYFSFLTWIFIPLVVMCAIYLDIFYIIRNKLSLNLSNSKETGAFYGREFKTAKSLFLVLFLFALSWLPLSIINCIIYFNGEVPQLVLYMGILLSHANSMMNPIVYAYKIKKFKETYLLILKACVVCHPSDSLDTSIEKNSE
Method: Stable transfection of HEK-293 or CHO cells. The cDNAs for human A1, A2A, A2B or A3 AdoRs were prepared by RT-PCR from total RNA of human cells or tissues and sequenced on both strands. The expression vector containing each of these cDNAs and a second vector containing a neomycin or puromycin-resistance gene were introduced to HEK-293 or CHO cells by Lipofectin-Plus (Life Technology). Colonies were selected by growing transfected cells in the presence of neomycin or puromycin. Stably transfected cells were maintained in Dulbecco's modified Eagle's medium (DMEM) or F-12 medium with 10% fetal bovine serum, 100 μg/ml penicillin, 100 μg/ml streptomycin and appropriate concentrations of neomycin or puromycin. These stably transfected cells were referred to as HEK-“AdoR” or CHO-“AdoR” depending on the receptors that they express. For example, cells that were transfected with A3 AdoRs were referred to as HEK-A3 or CHO-A3.
Membrane preparation. Monolayers of transfected cells were washed with phosphate buffered saline (PBS) and harvested in a buffer containing 10 mM HEPES (pH 7.4), 10 mM EDTA and protease inhibitors. The cells were homogenized in polytron for 1 minute at setting 4 and centrifuged at 29000 g for 15 minutes at 4° C. The cell pellets were washed with a buffer containing 10 mM HEPES (pH7.4), 1 mM EDTA and protease inhibitors, and were resuspended in the same buffer supplemented with 10% sucrose. Frozen aliquots were kept at −80° C.
Radioligand binding. The affinities of compounds for A1, A2A, A2B or A3 AdoRs were determined in competition studies using radioligands such as ^3H—CPX (A1 antagonist), or ^3H-CCPA (A1 agonist), ^3H-ZM214385 (A2A antagonist) or ^3H-CGS21680 (A2A agonist), ^3H-ZM214385 (A2B antagonist) or ^125I-AB-MECA (A3 agonist) and membranes of corresponding transfected cells. For example, to determine the affinity for A3 AdoRs, the competition assays were started by mixing 0.2 nM ^125I-AB-MECA with various concentrations of test compounds and 25 ug membrane proteins of HEK-A3 or CHO-A3 in TEM buffer (50 mM Tris, 1 mM EDTA and 10 mM MgCl2) supplemented with 1 U/ml adenosine deaminase. The assays were incubated for 90 minutes, stopped by filtration onto GF/B filter plates using Packard Harvester and washed four times with ice-cold TM buffer (10 mM Tris, 1 mM MgCl2, pH 7.4). The amounts of radioligands that bound to the GF/B filter plates were determined by scintillation counting. Nonspecific binding was determined in the presence of 10 μM R—PIA or 1 μM IB-MECA. Bmax and KD values were calculated using GraphPad software.

SMILES | Ki (A3 AdoRs) [nM] | melting point [°C]
CONc1nc(C#Cc2ccc(C)cc2)nc2c1ncn2[C@@H]1O[C@H](CO)[C@@H](O)[C@H]1O [(4S,2R,3R,5R)-5-(hydroxymethyl)-2-[6-(methoxyamino)-2-[(2-(4-methylphenyl)ethynyl]-purin-9-yl]oxolane-3,4-diol] | 0.331 | –
CCCCCc1ccc(C#Cc2nc(NOC)c3ncn([C@@H]4O[C@H](CO)[C@@H](O)[C@H]4O)c3n2)cc1 [(4S,2R,3R,5R)-5-hydroxymethyl)-2-{6-(methoxyamino-2-[2-(4-pentylphenylethynyl)]purin-9-yl}oxolane-3,4-diol] | 0.388 | –
CONc1nc(C#Cc2ccccc2)nc2c1ncn2[C@@H]1O[C@H](CO)[C@@H](O)[C@H]1O [Example 6A, (4S,2R,3R,5R)-5-(hydroxymethyl)-2-[6-(methoxyamino)-2-(2-phenylethynyl)purin-9-yl]oxolane-3,4-diol] | – | 175 to 177

More lines, now with the values ahead:

Ki (A3 AdoRs) [nM] | melting point [°C] | SMILES
0.422 | – | CONc1nc(C#Cc2ccc(F)cc2)nc2c1ncn2[C@@H]1O[C@H](CO)[C@@H](O)[C@H]1O [(4S,2R,3R,5R)-2-{2-[2-(4-fluorophenyl)ethynyl}-6-(methoxyamino)purin-9-yl}-5-(hydroxymethyl)oxolane-3,4-diol]
0.681 | – | CCCCC#Cc1nc(NOC)c2ncn([C@@H]3O[C@H](CO)[C@@H](O)[C@H]3O)c2n1 [(4S,2R,3R,5R)-2-{2-[2-hex-1-ynyl-6-methoxyamino)purin-9-yl}-5-(hydroxymethyl)oxolane-3,4-diol]
